# In PMC5650409 (Oncotarget, 2017):
# How the values were obtained:
# [1] = Octanol-water partition coefficient determination; type: physicochemical; settings: n-octanol / PBS pH 7.4
# Experimental: After vortexing for 10 min, the tube was centrifuged (8000 rpm, 3 min) for layer separation. An aliquot of the aqueous and n-octanol layers was collected and measured by a γ-counter.
# T3M4 tumor-bearing mice = assay: Small-animal PET imaging of T3M4 xenografts (with aseptic inflammation, with and without β-D-lactose blocking); type: in vivo; settings: for tumor uptake (PET ROI-derived): T3M4 tumor, 60 min post-injection
# Experimental: (§1) All animal experiments were performed in adherence with the Peking Union Medical College Hospital (PUMCH) guidelines for the use of laboratory animals and were approved by PUMCH Clinical Center Animal Care and Use Committee. The pancreatic cancer tumor-bearing models were generated by subcutaneous injection of 5 × 10^6 human T3M4 pancreatic cancer cells (kindly supplied by Prof. Taiping Zhang from the Department of General Surgery, Peking Union Medical College Hospital) and SK-BR-3 breast cancer cells (kindly supplied by Prof. Wei Ge from Department of Immunology, Institute of Basic Medical Sciences), into the right shoulder of female athymic nude mice (Laboratory Animal Center of PUMCH). Tumor sizes were monitored with a vernier caliper. When the tumor reached approximately 3-5 mm in diameter, T3M4 tumor-bearing mice were intramuscularly injected with 0.2 mL turpentine into the left hind leg muscle. After 72 h, those tumor-bearing mice with a visible mass in left thigh muscle, were selected and used as models with aseptic inflammation.
# (§2) In vivo PET imaging was performed using a small-animal PET scanner Inveon (Siemens Medical systems, USA). […] Mice were anesthetized with isoflurane and placed on a heated pad (to provide the animal with warmth throughout the scanning). PET images were acquired at 30, 60, 90 and 120 min post-injection. After the acquisition, region of interests (ROIs), including tumor, muscle, brain and kidney were drawn over major organs on decay-corrected whole-body coronal images using Inveon Research Workplace 4.1 software. Radioactivity concentration of organs was obtained from the mean pixel values within the multiple ROI volume, and converted into MBq/mL using a conversion factor. Assuming the density of tissue was 1 g/cm^3, the ROIs were converted to MBq/g and then divided by the administered activity, to obtain an imaging ROI-derived %ID/g.
# [2] = In vitro stability in fetal bovine serum; type: in vitro ADME; settings: 37 °C, 120 min
# [3] = tested on: T3M4 tumor-bearing nude mice; assay: In vivo biodistribution; settings: n = 5
# Experimental: All animal experiments were performed in adherence with the Peking Union Medical College Hospital (PUMCH) guidelines for the use of laboratory animals and were approved by PUMCH Clinical Center Animal Care and Use Committee. […] Zhang from the Department of General Surgery, Peking Union Medical College Hospital) and SK-BR-3 breast cancer cells (kindly supplied by Prof. Wei Ge from Department of Immunology, Institute of Basic Medical Sciences), into the right shoulder of female athymic nude mice (Laboratory Animal Center of PUMCH). Tumor sizes were monitored with a vernier caliper. […] After 72 h, those tumor-bearing mice with a visible mass in left thigh muscle, were selected and used as models with aseptic inflammation. […] At 5 min, 30 min, 60 min and 120 min after injection, mice were sacrificed by humane euthanasia - cervical dislocation. Blood was obtained through the eyeball, and tissues and organs of interests (brain, heart, lung, liver, pancreas, kidney, spleen, intestine, muscle, stomach, bone and tumor) were then weighed and counted. All measurements were background-subtracted and decay-corrected to the time of killing and then averaged. Radioactivity values were calculated and presented as the percentage injected dose per gram (%ID/g) of tissue.
# [4] = Experimental: Urine and blood samples were collected at 15 min post-injection and blood was centrifuged (8000 rpm, 10 min) to separate out the plasma. Urine and plasma samples were analyzed by radio-TLC, as above.
# [5] = tested on: SK-BR-3 tumor-bearing mice; assay: Small-animal PET imaging of SK-BR-3 xenografts; type: in vivo
# Experimental: as §1, §2
# [6] = 15 min after intravenous injection, radio-TLC
# [7] = SK-BR-3 xenografts, 60 min post-injection
structure (smiles),measurement,setting,value
"OC[C@H]1O[C@@H](O[C@H]2[C@H](O)[C@@H](O)[C@H](OCC[18F])O[C@@H]2CO)[C@H](O)[C@@H](O)[C@H]1O [^18F-FEL, 1'-^18F-fluoroethyl-β-D-lactose]",log P,[1],−2.62 ± 0.12
same,accumulation in inflammatory tissue,"T3M4 tumor-bearing mice; T3M4-inflammation mice, 60 min after injection, PET",non-accumulation in inflammatory tissue
same,tumor uptake (PET ROI-derived),T3M4 tumor-bearing mice; co-injection of β-D-lactose (15 mg/kg),2.36 ± 0.11 %ID/g
same,tumor uptake (PET ROI-derived),T3M4 tumor-bearing mice; no blocking,10.7 ± 1.01 %ID/g
same,reduction of specific tumor accumulation in PET competition assay,T3M4 tumor-bearing mice; co-injection of β-D-lactose,approximately 80%
same,intact ^18F-FEL in fetal bovine serum,[2],greater than 95%
same,"Biodistribution, Blood",[3]; 5 min after injection,9.58 ± 0.51 %ID/g
same,"Biodistribution, Bone",[3]; 5 min after injection,1.34 ± 0.23 %ID/g
same,"Biodistribution, Brain",[3]; 5 min after injection,0.67 ± 0.23 %ID/g
same,"Biodistribution, Heart",[3]; 5 min after injection,3.81 ± 0.62 %ID/g
same,"Biodistribution, Intestine",[3]; 5 min after injection,2.57 ± 0.30 %ID/g
same,"Biodistribution, Kidney",[3]; 5 min after injection,19.4 ± 4.76 %ID/g
same,"Biodistribution, Liver",[3]; 5 min after injection,2.12 ± 0.21 %ID/g
same,"Biodistribution, Lung",[3]; 5 min after injection,2.29 ± 0.35 %ID/g
same,"Biodistribution, Muscle",[3]; 5 min after injection,2.50 ± 0.15 %ID/g
same,"Biodistribution, Pancreas",[3]; 5 min after injection,2.90 ± 1.28 %ID/g
same,"Biodistribution, Spleen",[3]; 5 min after injection,1.89 ± 0.62 %ID/g
same,"Biodistribution, Stomach",[3]; 5 min after injection,3.60 ± 0.64 %ID/g
same,"Biodistribution, Tumor",[3]; 5 min after injection,6.67 ± 0.42 %ID/g
same,"Biodistribution, Blood",[3]; 30 min after injection,2.31 ± 0.67 %ID/g
same,"Biodistribution, Bone",[3]; 30 min after injection,0.60 ± 0.26 %ID/g
same,"Biodistribution, Brain",[3]; 30 min after injection,0.16 ± 0.04 %ID/g
same,"Biodistribution, Heart",[3]; 30 min after injection,0.88 ± 0.25 %ID/g
same,"Biodistribution, Intestine",[3]; 30 min after injection,0.94 ± 0.16 %ID/g
same,"Biodistribution, Kidney",[3]; 30 min after injection,9.59 ± 1.80 %ID/g
same,"Biodistribution, Liver",[3]; 30 min after injection,1.36 ± 0.07 %ID/g
same,"Biodistribution, Lung",[3]; 30 min after injection,1.91 ± 0.42 %ID/g
same,"Biodistribution, Muscle",[3]; 30 min after injection,0.91 ± 0.12 %ID/g
same,"Biodistribution, Pancreas",[3]; 30 min after injection,0.69 ± 0.33 %ID/g
same,"Biodistribution, Spleen",[3]; 30 min after injection,0.77 ± 0.19 %ID/g
same,"Biodistribution, Stomach",[3]; 30 min after injection,1.03 ± 0.33 %ID/g
same,"Biodistribution, Tumor",[3]; 30 min after injection,3.24 ± 0.11 %ID/g
same,"Biodistribution, Blood",[3]; 60 min after injection,0.87 ± 0.31 %ID/g
same,"Biodistribution, Bone",[3]; 60 min after injection,0.31 ± 0.02 %ID/g
same,"Biodistribution, Brain",[3]; 60 min after injection,0.10 ± 0.02 %ID/g
same,"Biodistribution, Heart",[3]; 60 min after injection,0.38 ± 0.10 %ID/g
same,"Biodistribution, Intestine",[3]; 60 min after injection,0.56 ± 0.35 %ID/g
same,"Biodistribution, Kidney",[3]; 60 min after injection,4.35 ± 1.53 %ID/g
same,"Biodistribution, Liver",[3]; 60 min after injection,0.83 ± 0.23 %ID/g
same,"Biodistribution, Lung",[3]; 60 min after injection,0.71 ± 0.37 %ID/g
same,"Biodistribution, Muscle",[3]; 60 min after injection,0.77 ± 0.30 %ID/g
same,"Biodistribution, Pancreas",[3]; 60 min after injection,0.63 ± 0.34 %ID/g
same,"Biodistribution, Spleen",[3]; 60 min after injection,0.56 ± 0.30 %ID/g
same,"Biodistribution, Stomach",[3]; 60 min after injection,0.82 ± 0.61 %ID/g
same,"Biodistribution, Tumor",[3]; 60 min after injection,1.03 ± 0.09 %ID/g
same,"Biodistribution, Blood",[3]; 120 min after injection,0.29 ± 0.12 %ID/g
same,"Biodistribution, Bone",[3]; 120 min after injection,0.12 ± 0.02 %ID/g
same,"Biodistribution, Brain",[3]; 120 min after injection,0.06 ± 0.03 %ID/g
same,"Biodistribution, Heart",[3]; 120 min after injection,0.20 ± 0.04 %ID/g
same,"Biodistribution, Intestine",[3]; 120 min after injection,0.20 ± 0.07 %ID/g
same,"Biodistribution, Kidney",[3]; 120 min after injection,2.08 ± 0.74 %ID/g
same,"Biodistribution, Liver",[3]; 120 min after injection,0.59 ± 0.09 %ID/g
same,"Biodistribution, Lung",[3]; 120 min after injection,0.38 ± 0.11 %ID/g
same,"Biodistribution, Muscle",[3]; 120 min after injection,0.15 ± 0.07 %ID/g
same,"Biodistribution, Pancreas",[3]; 120 min after injection,0.29 ± 0.07 %ID/g
same,"Biodistribution, Spleen",[3]; 120 min after injection,0.30 ± 0.17 %ID/g
same,"Biodistribution, Stomach",[3]; 120 min after injection,0.24 ± 0.17 %ID/g
same,"Biodistribution, Tumor",[3]; 120 min after injection,0.65 ± 0.12 %ID/g
same,percentage of intact probe in plasma,[4]; [6],no less than 94%
same,percentage of intact probe in urine,[4]; [6],no less than 94%
same,dehalogenation in vivo,"[4]; plasma and urine 15 min after intravenous injection, supported by low bone uptake",Almost no dehalogenation was detected
same,radioactivity uptake in SK-BR-3 tumor,"[5]; SK-BR-3 breast tumor-bearing mice with no HIP/PAP expression, PET",low
same,uptake ratio of tumor-to-blood,[5]; [7],0.37 ± 0.01
same,uptake ratio of tumor-to-liver,[5]; [7],0.54 ± 0.01
same,uptake ratio of tumor-to-muscle,[5]; [7],1.37 ± 0.05
